Key:
[1] = Rate measurements of cycloaddition of acetylenes with azides by UV spectroscopy in methanol; type: physicochemical; conditions: 25±0.1° C.
Description: The rate measurements of cycloaddition of acetylenes 6c and 4a were conducted by UV spectroscopy at 25±0.1° C. A calculated amount of 0.25 M solutions of an azide required to achieve desired azide concentration (6×10^−4-1.5×10^−2 M) was added to a thermally equilibrated ca. 6×10^−5 M solution of acetylene in MeOH. Reactions were monitored by following the decay of the characteristic absorbance of acetylenes ca. 317 nm (FIG. 6). Consumption of starting material followed a first order equation well and the pseudo-first order rate constants were obtained by the by least-squares fitting of the data to a single exponential equation. The dependence of the observed rates on the concentration of azides was linear.
The rate measurements of the cycloaddition reaction of acetylene 6c with azides was conducted by UV spectroscopy following the decay of the 317 nm band of 6c (as shown in FIG. 6) in the photolysate at various concentrations of azides from about 0.5 mM to about 20 mM). […]
Rate measurements were performed using Carry-300 Bio UV-Vis spectrometer equipped with a thermostatable cell holder. […] A calculated amount of 0.25 M solutions of an azide required to achieve desired azide concentration (6×10^−4−1.5×10^−2M) was added at once. Reactions were monitored by following the decay of the characteristic absorbance of acetylene 6c at approximately 317 nm (FIG. 6). […]

[2] = Stability of cyclopropenones (shelf life, elevated temperature, solution); type: physicochemical; conditions: 3 days at 40° C. in aqueous and methanol solutions
Description: Diphenyl cyclopropenones, such as 5a-c, 18a-c, and 19, had long shelf lives, and could withstand elevated temperatures. […] (Poloukhtine & Popik (2003) J. Org. Chem. 68: 7833-7840). The cyclopropenones are also stable in solution in the absence of light.

Molecule | Bimolecular rate constant, Rate ([1]; 1-phenyl-2-azidopropane) | Bimolecular rate constant, Rate ([1]; n-butyl azide) | Decomposition in solution in the absence of light [2]
3,9-Dibutoxy-5,6-didehydro-11,12-dihydrodibenzo[a,e][8]annulen-2-yl [6c] | 0.0343 M⁻¹ s⁻¹ | 0.0586 M⁻¹ s⁻¹ | –
CCCCOc1ccc2c(c1)CCc1cc(OCCCC)ccc1-c1c-2c1=O [5c, 4,9-dibutoxy-6,7-dihydro-1H-dibenzo[a,e]cyclopropa[c][8]annulen-1-one] | – | – | no decomposition

From patent US8426649B2, “Cyclopropenones and the photochemical generation of cyclic alkynes therefrom” (University of Georgia Research Foundation, Inc., priority 2009, dated 2013)
